According to patent EP0624315B1, “Diaryl(pyridinio and isoquinolinio) boron fungicidal agents” (AMERICAN CYANAMID COMPANY, priority 1993, dated 1994):

Tests used:
Venturia inaequalis = assay: In vivo fungicidal evaluation, Apple Scab; settings: 200 ppm, host plants sprayed, dried, then inoculated; further: ranges in brackets are in %
Plasmopara viticola = assay: In vivo fungicidal evaluation, Grape Downy Mildew; settings: 200 ppm, host plants sprayed, dried, then inoculated; further: ranges in brackets are in %
Botrytis cinerea = assay: In vivo fungicidal evaluation, Pepper Botrytis; settings: 200 ppm, host plants sprayed, dried, then inoculated; further: ranges in brackets are in %
Pyricularia oryzae = format: in vivo; settings: 200 ppm, host plants sprayed, dried, then inoculated
Cercospora beticola = assay: In vivo fungicidal evaluation, Sugar Beet Cercospora; settings: 200 ppm, host plants sprayed, dried, then inoculated; further: ranges in brackets are in %
Alternaria solani = assay: In vivo fungicidal evaluation, Tomato Early Blight; settings: 200 ppm, host plants sprayed, dried, then inoculated; further: ranges in brackets are in %
[1] = test system: Puccinia recondita f. sp. tritici; assay: In vivo fungicidal evaluation, Wheat Leaf Rust; settings: 200 ppm, host plants sprayed, dried, then inoculated; further: ranges in brackets are in %
[2] = test system: Erysiphe graminis f. sp. tritici; assay: In vivo fungicidal evaluation, Wheat Powdery Mildew; settings: 200 ppm, host plants sprayed, dried, then inoculated; further: ranges in brackets are in %
[3] = test system: Fusarium oxysporum f. sp. cucumerinum (Fusoxc); assay: In vitro fungicidal evaluation, mycelial growth inhibition in nutrient broth; format: cell-based; settings: 25 ppm, 3-4 days at 21°C, rated visually; further: ranges in brackets are in %
Protocol: (§1) Test compounds are dissolved or suspended in acetone and dispersed into cell well plates containing a suspension of ground fungal mycelia in a nutrient broth. Assay plates are incubated for 3-4 days at 21°C. Growth inhibition is measured visually and is rated using the following scale:
(§2) Untreated controls, solvent blanks and reference standards are included in each test.
(§3) Assay fungi include the plant pathogens, Pythium ultimum (Pythul); Rhizoctonia solani (Rhizso); Fusarium oxysporum f. sp. cucumerinum (Fusoxc); and Pseudocercosporella herpotrichoides (Psdche).
(§4) When more than one test is run, the data are averaged. The compouds evaluated are reported by compound number given in Example 5.

[4] = test system: Pseudocercosporella herpotrichoides (Psdche); assay: as above; format: cell-based; settings: 25 ppm, 3-4 days at 21°C, rated visually; further: ranges in brackets are in %
Protocol: as §1, §2, §3, §4

Pythium ultimum (Pythul) = assay: as above; format: cell-based; settings: 25 ppm, 3-4 days at 21°C, rated visually; further: ranges in brackets are in %
Protocol: as §1, §2, §3, §4

[5] = test system: Rhizoctonia solani (Rhizso); assay: as above; format: cell-based; settings: 25 ppm, 3-4 days at 21°C, rated visually; further: ranges in brackets are in %
Protocol: as §1, §2, §3, §4

[6] = test system: Spodoptera eridania 3rd instar larvae, southern army-worm; assay: Insecticide evaluation, southern armyworm leaf dip; format: in vivo; settings: 5 days
Protocol: (§5) The following tests show the efficacy of the compounds as insecticides and acaricides. The evaluations are conducted with solutions of test compounds dissolved or dispersed in 50/50 acetone/water mixtures. The test compound is technical material dissolved or dispersed in said acetone/water mixtures in sufficient amounts to provide the concentrations set forth in Table I below. All concentrations reported herein are in terms of active ingredient. All tests are conducted in a laboratory maintained at about 27 °C. The rating system employed is as follows:
A sieva lima bean leaf expanded to 7 to 8 cm in length is dipped in the test suspension with agitation for 3 seconds and placed in a hood to dry. The leaf is then placed in a 100x10 mm petri dish containing a damp filter paper on the bottom and 10 3rd instar caterpillars. The dish is maintained for 5 days before observations are made of mortality, reduced feeding or any interference with normal moulting.

[7] = test system: Tetranychus urticae (OP-resistant strain), 2-spotted spider mite; assay: Acaricide evaluation, 2-spotted spider mite plant dip; format: in vivo; settings: 300 ppm, 2 days, adult kill
Protocol: as §5
Sieva lima bean plants with primary leaves expaned to 7 to 8 cm are selected and cut back to one plant per pot. A small piece is cut from a leaf taken from the main colony and placed on each leaf of the test plants. This is done about 2 hours before treatment to allow the mites to move over to the test plant and to lay eggs. The size of the cut piece is varied to obtain about 100 mites per leaf. At the time of the treatment, the piece of leaf used to transfer the mites is removed and discarded. The mite-infested plants are dipped in the test formulation for 3 seconds with agitation and set in the hood to dry. Plants are kept for 2 days before estimates of adult kill are made.

[8] = test system: Diabrotica undecimpunctata howardi, 3rd instar southern corn rootworm; assay: Insecticide evaluation, southern corn rootworm soil test; format: in vivo; set-up: key: 0 = no effect; 1 = 10-25% kill; 2 = 26-35% kill; 3 = 36-45% kill; 4 = 46-55% kill; 5 = 56-65% kill; 6 = 66-75% kill; 7 = 76-85% kill; 8 = 86-99% kill; 9 = 100% kill; - = No evaluation; settings: 50 kg/ha (1.25 mg active ingredient per jar), 6 days
Protocol: as §5
One cc of fine talc is placed in a 30 mL wide-mouth screw-top glass jar. One mL of the appropriate acetone test solution is pipetted onto the talc so as to provide 1.25 mg of active ingredient per jar. The jars are set under a gentle air flow until the acetone is evaporated. The dried talc is loosened, 1 cc of millet seed is added to serve as food for the insects and 25 mL of moist soil is added to each jar. The jars are capped and the contents thoroughly mixed on a Vortex Mixer. Following this, ten 3rd instar rootworms are added to each jar and the jars are loosely capped to allow air exchange for the larvae. The treatments are held for 6 days before mortality counts are made. Missing larvae are presumed dead, since they decompose rapidly and can not be found. The concentration used in this test corresponds to approximately 50 kg/ha.

[9] = test system: Heliothis virenscens, 3rd instar tobacco budworm; assay: Insecticide evaluation, tobacco budworm cotton cotyledon dip; format: in vivo; settings: 300 ppm, 3 days
Protocol: as §5
Cotton cotyledons are dipped in the test formulation and allowed to dry in a hood. When dry, each is cut into quarters and ten sections placed individually in 30 mL plastic medicine cups containing a 5 to 7 mm long piece of damp dental wick. One 3rd instar caterpillar is added to each cup and a cardboard lid placed on the cup. Treatments are maintained for 3 days before mortality counts and estimates of reduction in feeding damage are made.

Compound | AS (Apple Scab) disease control rating (Venturia inaequalis) | GDM (Grape Downy Mildew) disease control rating (Plasmopara viticola) | PB (Pepper Botrytis) disease control rating (Botrytis cinerea) | RB (Rice Blast) disease control rating (Pyricularia oryzae) | SBC (Sugar Beet Cercospora) disease control rating (Cercospora beticola) | TEB (Tomato Early Blight) disease control rating (Alternaria solani) | WLR (Wheat Leaf Rust) disease control rating [1] | WPM (Wheat Powdery Mildew) disease control rating [2] | FUSOXC growth inhibition rating [3] | PSDCHE growth inhibition rating [4] | PHTHUL growth inhibition rating (Pythium ultimum (Pythul)) | RHIZSO growth inhibition rating [5] | Southern Armyworm kill rating ([6]; 1000 ppm) | OP. Res. Mites kill rating [7] | Southern Corn Rootworm kill rating [8] | Southern Armyworm kill rating ([6]; 300 ppm) | Tobacco Budworm Larvae kill rating [9]
(4-Bromoisoquinolinio)bis(p-fluorophenyl)methylboron [Compound 14] | 8 (96 - 99) | 7 (90 - 95) | 9 (100) | 8 (96 - 99) | 7 (90 - 95) | 0 (0) | 0 (0) | 0 (0) | 9 (100) | 9 (100) | 9 (100) | 9 (100) | 9 (9 = 100% kill) | 9 (9 = 100% kill) | 5 (5 = 56-65% kill) | – | –
C[B-](c1ccccc1)(c1ccccc1)[n+]1cccc(Br)c1 [Compound 18, (3-Bromopyridinio)methyldiphenylboron] | 0 (0) | 4 (45 - 59) | 8 (96 - 99) | 5 (60 - 74) | 6 (75 - 89) | 4 (45 - 59) | 0 (0) | 0 (0) | 7 (90 - 99) | 9 (100) | 7 (90 - 99) | 7 (90 - 99) | 9 (9 = 100% kill) | 7 (7 = 76-85% kill) | 0 | – | –
Bis(p-fluorophenyl)methyl(5-nitroisoquinolinio)boron [Compound 15] | 9 (100) | 0 (0) | 9 (100) | 3 (30 - 44) | 7 (90 - 95) | 4 (45 - 59) | 0 (0) | 0 (0) | 9 (100) | 9 (100) | 9 (100) | 9 (100) | – | – | – | – | –
(3-Ethyl-4-methylpyridinio)methyldiphenylboron [Compound 5] | 0 (0) | 9 (100) | 0 (0) | 0 (0) | 0 (0) | 8 (96 - 99) | 8 (96 - 99) | 9 (100) | 9 (100) | 9 (100) | 9 (100) | 9 (100) | 9 (9 = 100% kill) | 8 (8 = 86-99% kill) | 9 (9 = 100% kill) | – | –
(Isoquinolinio)methyldiphenylboron [Compound 6] | 9 (100) | 9 (100) | 0 (0) | 6 (75 - 89) | 0 (0) | 0 (0) | 9 (100) | 8 (96 - 99) | 9 (100) | 9 (100) | 9 (100) | 7 (90 - 99) | – | 8 (8 = 86-99% kill) | 9 (9 = 100% kill) | 9 (9 = 100% kill) | 8 (8 = 86-99% kill)
(4-Isopropylpyridinio)methyldiphenylboron [Compound 1] | 9 (100) | 9 (100) | 7 (90 - 95) | 7 (90 - 95) | 0 (0) | 7 (90 - 95) | 8 (96 - 99) | 8 (96 - 99) | 9 (100) | 9 (100) | 7 (90 - 99) | 9 (100) | – | 8 (8 = 86-99% kill) | 0 | 8 (8 = 86-99% kill) | 8 (8 = 86-99% kill)
Butoxy(4-isopropylpyridinio)diphenylboron [Compound 11] | 8 (96 - 99) | 0 (0) | 4 (45 - 59) | 0 (0) | 0 (0) | 0 (0) | 0 (0) | 0 (0) | 9 (100) | 7 (90 - 99) | 9 (100) | 9 (100) | – | – | – | – | –
Chloro(isoquinolinio)di-p-tolylboron [Compound 12] | 0 (0) | 0 (0) | 0 (0) | 0 (0) | 7 (90 - 95) | 0 (0) | 0 (0) | 0 (0) | 7 (90 - 99) | 5 (60 - 89) | 7 (90 - 99) | 7 (90 - 99) | – | – | – | – | –
Methyl(3-methylpyridinio)diphenylboron [Compound 2] | 9 (100) | 9 (100) | 0 (0) | 7 (90 - 95) | 0 (0) | 0 (0) | 8 (96 - 99) | 8 (96 - 99) | 9 (100) | 9 (100) | 9 (100) | 9 (100) | 9 (9 = 100% kill) | 9 (9 = 100% kill) | 9 (9 = 100% kill) | – | –
